Experimental data: patent US7767685B2, “Adenosine A2B receptor antagonists” (King Pharmaceuticals Research and Development, Inc., priority 2006, dated 2010)
pKi: −log10 of the molar value.

Tests used:
[1] = molecular target: T1, human A1 adenosine receptors (Homo sapiens, UniProt P30542); assay: Displacement of [3H]DPCPX binding at human A1 adenosine receptors expressed in CHO cells; details: [3H]DPCPX displacement, n = 3-6, geometric mean (95% confidence limits), read-out: Ki hA1
T1 construct: expressed in transfected cells; host or cells: CHO cells (membranes)
T1 sequence (P30542 1-326): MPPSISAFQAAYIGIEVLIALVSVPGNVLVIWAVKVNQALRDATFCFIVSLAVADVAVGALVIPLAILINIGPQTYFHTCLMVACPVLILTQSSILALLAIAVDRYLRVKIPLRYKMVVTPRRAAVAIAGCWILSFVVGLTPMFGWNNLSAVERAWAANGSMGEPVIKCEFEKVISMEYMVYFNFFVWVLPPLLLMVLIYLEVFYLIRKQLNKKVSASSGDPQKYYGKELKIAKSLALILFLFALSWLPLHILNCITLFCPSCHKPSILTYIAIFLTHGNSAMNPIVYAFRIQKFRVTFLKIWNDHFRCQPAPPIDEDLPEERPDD
Experimental: The human adenosine receptors have been transfected in CHO cells according with the method previously described by Klotz et al. (Naunyn-Schmied. Arch Pharm. 1998, 357: 1-9). Briefly, the cells are grown adherently and maintained in Dulbecco's Modified Eagles Medium with nutrient mixture F12 (DMEM/F12) without nucleosides, containing 10% fetal calf serum, penicillin (100 U/mL), streptomycin (100 μg/mL), L-glutamine (2 mM) and Geneticin (G418, 0.2 mg/ml) at 37° C. in 5% CO2/95% air. For membrane preparation the culture medium is removed and the cells are washed with phosphate-buffered saline and scraped off T75 flasks in ice-cold hypo tonic buffer (5 mM Tris HCl, 1 mM EDTA, pH 7.4). The cell suspension is homogenized with Polytron, the homogenate is spun for 10 min at 1000×g and the supernatant is then centrifuged for 30 min at 100,000×g. The membrane pellet is suspended in 50 mM Tris HCl buffer (pH 7.4) for A1 adenosine receptors, in 50 mM Tris HCl, 10 mM MgCl2 (pH 7.4) for A2A adenosine receptors, in 50 mM Tris HCl, 10 mM MgCl2, 1 mM EDTA (pH 7.4) for A2B and A3 adenosine receptors.
All new synthesized compounds have been tested to evaluate their affinity to human A1, A2A, A2B and A3 adenosine receptors. Displacement experiments of [^3H]-DPCPX to CHO cells transfected with the human recombinant A1 adenosine receptors are performed for 120 min at 25° C. incubating diluted membranes (50 μg of protein/assay) and at least 6-8 different concentrations of examined antagonists (Varani et al., Mol. Pharmacol., 2000, 57: 968-975). Non-specific binding is determined in the presence of 10 μM of CHA and this is always ≦10% of the total binding. Binding of [^3H]-ZM 241385 to CHO cells transfected with the human recombinant A2A adenosine receptors is performed using a suspension of membranes (50 μg of protein/assay) and at least 6-8 different concentrations of studied antagonists for an incubation time of 60 min at 4° C. Non-specific binding is determined in the presence of 1 μM ZM 241385 and is about 20% of total binding. Competition binding experiments of [^3H]-MRE 2029F20 to CHO cells transfected with the human recombinant A2B adenosine receptors are carried out incubating for 120 min at 4° C. diluted membranes (50 μg of protein/assay) and at least 6-8 different concentrations of examined compounds. Non-specific binding is defined as binding in the presence of 1 μM MRE 3029F20 and is about 25% of total binding. Competition binding experiments of [^3H]-MRE 3008F20 to CHO cells transfected with the human recombinant A3 adenosine receptors^5 are carried out incubating for 120 min at 4° C. diluted membranes (50 μg of protein/assay) and at least 6-8 different concentrations of examined ligands. Non-specific binding is defined as binding in the presence of 1 μM MRE 3008F20 and is about 25% of total binding. Bound and free radioactivity are separated by filtering the assay mixture through Whatman GF/B glass fiber filters using a Micro-Mate 196 cell harvester (Packard Instrument Co.). The filter bound radioactivity is counted on a Top Count (efficiency 57%) with Micro-Scint 20.
The protein concentration is determined according to a Bio-Rad method (Bradford, Anal Biochem. 1976, 72: 248-254) with bovine albumin as a standard reference. Inhibitory binding constant, Ki, values are calculated from those of IC50 according to Cheng & Prusoff equation (Biochem. Pharmacol 1973, 22: 3099-3108): Ki=IC50/(1+[C*]/KD*) where [C*] is the concentration of the radioligand and KD* its dissociation constant. A weighted non linear least-squares curve fitting program LIGAND (Munson et al., Anal. Biochem 1980, 107: 220-239) is used for computer analysis of inhibition experiments Data are expressed as geometric mean with 95% confidence limits in parentheses. Examples of Animal Models

pKi [1]	melting point [°C]	Compound
6.46	255 to 257	CCCn1c(=O)c2[nH]c(-c3cc(C)n(CC(=O)Nc4ccccc4)n3)nc2n(CCC)c1=O [Example 1, 2-[3-(2,6-Dioxo-1,3-dipropyl-2,3,6,7-tetrahydro-1H-purin-8-yl)-5-methyl-pyrazol-1-yl]-N-phenyl-acetamide]
< 6.00	286 to 289	CCCn1c(=O)c2[nH]c(-c3cc(C)n(CC(=O)Nc4ccc(I)cc4)n3)nc2n(CCC)c1=O [Example 2, 2-[3-(2,6-Dioxo-1,3-dipropyl-2,3,6,7-tetrahydro-1H-purin-8-yl)-5-methyl-pyrazol-1-yl]-N-(4-iodophenyl)-acetamide]
6.30	205 to 207	CCCn1c(=O)c2[nH]c(-c3cc(C)n(CC(=O)Nc4ccc(F)cc4)n3)nc2n(CCC)c1=O [Example 5, 2-[3-(2,6-Dioxo-1,3-dipropyl-2,3,6,7-tetrahydro-1H-purin-8-yl)-5-methyl-pyrazol-1-yl]-N-(4-fluoro-phenyl)-acetamide]
< 6.00	293 to 296	CCCn1c(=O)c2[nH]c(-c3cc(C)n(CC(=O)Nc4ccc(OC)cc4)n3)nc2n(CCC)c1=O [Example 6, 2-[3-(2,6-Dioxo-1,3-dipropyl-2,3,6,7-tetrahydro-1H-purin-8-yl)-5-methyl-pyrazol-1-yl]-N-(4-methoxyphenyl)-acetamide]
< 6.00	261 to 265	CCCn1c(=O)c2[nH]c(-c3cc(C)n(CC(=O)Nc4ccc(C)c(C)c4)n3)nc2n(CCC)c1=O [Example 7, 2-[3-(2,6-Dioxo-1,3-dipropyl-2,3,6,7-tetrahydro-1H-purin-8-yl)-5-methyl-pyrazol-1-yl]-N-(3,4-dimethylphenyl)-acetamide]
< 6.00	285 to 290	CCCn1c(=O)c2[nH]c(-c3cc(C)n(CC(=O)Nc4ccc(OC)c(OC)c4)n3)nc2n(CCC)c1=O [Example 8, 2-[3-(2,6-Dioxo-1,3-dipropyl-2,3,6,7-tetrahydro-1H-purin-8-yl)-5-methyl-pyrazol-1-yl]-N-(3,4-dimethoxyphenyl)-acetamide]
6.85	283 to 285	CCCn1c(=O)c2[nH]c(-c3ccn(CC(=O)Nc4ccc(Cl)cc4)n3)nc2n(CCC)c1=O [Example 10, 2-[3-(2,6-Dioxo-1,3-dipropyl-2,3,6,7-tetrahydro-1H-purin-8-yl)-pyrazol-1-yl]-N-(4-chloro-phenyl)-acetamide]
< 6.00	268 to 271	CCCn1c(=O)c2[nH]c(-c3cc(C)n(CC(=O)Nc4ccc(C(C)CC)cc4)n3)nc2n(CCC)c1=O (stereo not drawn) [Example 12, 2-[3-(2,6-Dioxo-1,3-dipropyl-2,3,6,7-tetrahydro-1H-purin-8-yl)-5-methyl-pyrazol-1-yl]-N-(4-sec-butylphenyl)-acetamide]
6.32	274 to 277	CCCn1c(=O)c2[nH]c(-c3cc(C)n(CC(=O)Nc4cccc(OC)c4)n3)nc2n(CCC)c1=O [Example 14, 2-[3-(2,6-Dioxo-1,3-dipropyl-2,3,6,7-tetrahydro-1H-purin-8-yl)-5-methyl-pyrazol-1-yl]-N-(3-methoxylphenyl)-acetamide]
6.17	304 to 307	CCCn1c(=O)c2[nH]c(-c3cc(C)n(CC(=O)Nc4cccc(Cl)c4)n3)nc2n(CCC)c1=O [Example 15, 2-[3-(2,6-Dioxo-1,3-dipropyl-2,3,6,7-tetrahydro-1H-purin-8-yl)-5-methyl-pyrazol-1-yl]-N-(3-chlorophenyl)-acetamide]
< 6.00	298	CCCn1c(=O)c2[nH]c(-c3cc(C)n(CC(=O)Nc4ccc(Cl)c(Cl)c4)n3)nc2n(CCC)c1=O [Example 16, 2-[3-(2,6-Dioxo-1,3-dipropyl-2,3,6,7-tetrahydro-1H-purin-8-yl)-5-methyl-pyrazol-1-yl]-N-(3,4-dichlorophenyl)-acetamide]
< 6.00	> 300	CCCn1c(=O)c2[nH]c(-c3cc(C)n(CC(=O)Nc4ccc(C)cc4)n3)nc2n(CCC)c1=O [Example 17, 2-[3-(2,6-Dioxo-1,3-dipropyl-2,3,6,7-tetrahydro-1H-purin-8-yl)-5-methyl-pyrazol-1-yl]-N-p-tolyl-acetamide]
< 6.00	–	CCCn1c(=O)c2[nH]c(-c3nn(CC(=O)Nc4ccc(Cl)cc4)c(C)c3Cl)nc2n(CCC)c1=O [Example 18, 2-[4-Chloro-3-(2,6-dioxo-1,3-dipropyl-2,3,6,7-tetrahydro-1H-purin-8-yl)-5-methyl-pyrazol-1-yl]-N-(4-chlorophenyl)-acetamide]
< 6.00	298 to 299	CCCn1c(=O)c2[nH]c(-c3nn(CC(=O)Nc4ccc(Cl)cc4)c(C)c3Br)nc2n(CCC)c1=O [Example 19, 2-[4-Bromo-3-(2,6-dioxo-1,3-dipropyl-2,3,6,7-tetrahydro-1H-purin-8-yl)-5-methyl-pyrazol-1-yl]-N-(4-chlorophenyl)-acetamide]
